Experimental findings from PubChem BioAssay (NCI) are described below.

Test systems include ACHN renal; HL-60(TB) leukemia; NCI-H226 lung; NCI-H23 lung; RXF 393 renal; SK-MEL-28 melanoma; SK-OV-3 ovarian; SW-620 colon; UACC-257 melanoma; UO-31 renal.
Assay in all cases: DTP human tumour cell line panel, 48 h

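Method: 48-hour compound exposure of cells in 96-well plates, five concentrations, linear interpolation of endpoints. GI50 = concentration required for 50% inhibition of growth. Definition used: TGI = concentration required for complete inhibition of growth.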

As to `CC/C=C\C=C/C(=O)N/C=C/CC1Cc2cccc(O)c2C(=O)O1` (stereo not given), the GI50 (in general, the concentration giving 50% growth inhibition) was 22.3 µM in the test with ACHN renal; 23.8 µM in the test with HL-60(TB) leukemia; 39.6 µM with NCI-H226 lung; 58.1 µM with NCI-H23 lung; 16.1 µM in the test with RXF 393 renal; 17.4 µM in the test on SK-MEL-28 melanoma. The GI50 in the test with SK-OV-3 ovarian was 46.7 µM; in the test with SW-620 colon, 13.8 µM; with UACC-257 melanoma it was 25.2 µM; in the test on UO-31 renal it was 35.4 µM. Besides, the TGI (commonly the concentration giving total growth inhibition) in the test with ACHN renal was 52.1 µM; with HL-60(TB) leukemia, above 100 µM; in the test with NCI-H226 lung, above 100 µM; in the test with NCI-H23 lung it was above 100 µM; in the test on RXF 393 renal it was 35.8 µM; in the test on SK-MEL-28 melanoma it was 58.7 µM. Further, the TGI was above 100 µM in the test on SK-OV-3 ovarian, 28.2 µM in the test with SW-620 colon, above 100 µM in the test with UACC-257 melanoma and above 100 µM in the test with UO-31 renal.

For the compound `CC(C)(C)OC(=O)C#CC[C@H]1CCCC1/C=C/C(O)=C1/C(=O)NC(CCCNC(=O)OC(C)(C)C)C1=O` (stereo not given in full), the TGI in the test with ACHN renal is above 100 µM; with HL-60(TB) leukemia, 73.7 µM; in the test on NCI-H226 lung it was above 100 µM; in the test with NCI-H23 lung it was 78.3 µM; with RXF 393 renal, 30 µM; with SK-MEL-28 melanoma it was 36.1 µM. The TGI in the test with SK-OV-3 ovarian is above 100 µM; with SW-620 colon, above 100 µM; in the test on UACC-257 melanoma, 61.4 µM; with UO-31 renal it was above 100 µM.

Consider `O=Cc1cn(C(=O)c2ccccc2)c2ccccc12`, for which the total growth inhibition concentration (TGI) in the test on ACHN renal was above 100 µM; in the test with HL-60(TB) leukemia, 92.6 µM; in the test with NCI-H226 lung, above 100 µM; in the test with NCI-H23 lung, above 100 µM; with RXF 393 renal, above 100 µM; with SK-MEL-28 melanoma, above 100 µM. Also, the TGI with SK-OV-3 ovarian, with SW-620 colon, with UACC-257 melanoma and in the test on UO-31 renal was above 100 µM in each case.

Take `O=CNc1c(Cl)cc2c(c1Cl)Cc1cc([N+](=O)[O-])ccc1-2`: the GI50 was 7.83 µM in the test on ACHN renal; 3.21 µM in the test with HL-60(TB) leukemia; 4.21 µM in the test on NCI-H226 lung; 5.56 µM with NCI-H23 lung; 10.8 µM in the test with RXF 393 renal; 20.2 µM with SK-MEL-28 melanoma. In addition, the GI50 in the test with SK-OV-3 ovarian is 9.92 µM; in the test on SW-620 colon, 3.33 µM; in the test with UACC-257 melanoma, 64 µM; in the test with UO-31 renal it was 1.81 µM. Moreover, the concentration for total growth inhibition (TGI) in the test with ACHN renal is above 100 µM; with HL-60(TB) leukemia, above 100 µM; in the test on NCI-H226 lung, above 94.1 µM; with NCI-H23 lung, above 66.8 µM; in the test on RXF 393 renal, 46.4 µM; with SK-MEL-28 melanoma it was above 100 µM. In addition, the total growth inhibition concentration (TGI) is 41.5 µM in the test on SK-OV-3 ovarian, above 100 µM with SW-620 colon, above 100 µM in the test on UACC-257 melanoma and 29.3 µM in the test with UO-31 renal.

In the case of `CCCCOc1ccc(NC(N)=Nc2ccc(Cl)cc2)cc1`, the TGI with ACHN renal turned out to be 12.7 µM; with HL-60(TB) leukemia, 22.5 µM; in the test with NCI-H226 lung, 29 µM; in the test with NCI-H23 lung, 17.3 µM; in the test on RXF 393 renal, 25.5 µM; with SK-MEL-28 melanoma it was 26.7 µM. Moreover, the TGI in the test with SK-OV-3 ovarian stood at 22.7 µM; in the test on SW-620 colon, 16.1 µM; in the test with UACC-257 melanoma, 5.21 µM; in the test on UO-31 renal it was 9.6 µM.

For the compound `CCN(CC)c1ccc(C(=C2C=CC(=[N+](CC)Cc3cccc(S(=O)(=O)O)c3)C=C2)c2ccc(N(CC)Cc3cccc(S(=O)(=O)O)c3)cc2)cc1`, the GI50 in the test on ACHN renal was 9.48 µM; in the test on HL-60(TB) leukemia, 4.38 µM; with NCI-H226 lung, 9.07 µM; in the test with NCI-H23 lung, 5.14 µM; in the test with RXF 393 renal, 7.94 µM; in the test on SK-MEL-28 melanoma it was 15.6 µM. Further, the GI50 is 5.04 µM with SK-OV-3 ovarian, 4.45 µM in the test on SW-620 colon, 21 µM in the test on UACC-257 melanoma and 16.3 µM in the test on UO-31 renal. The TGI in the test on ACHN renal is above 68.5 µM; in the test with HL-60(TB) leukemia, 17.4 µM; with NCI-H226 lung, above 90.2 µM; in the test on NCI-H23 lung it was 80.2 µM; with RXF 393 renal, 76.1 µM; in the test with SK-MEL-28 melanoma it was above 100 µM. The TGI in the test on SK-OV-3 ovarian was 27.1 µM; in the test with SW-620 colon it was above 100 µM; with UACC-257 melanoma it was above 100 µM; in the test on UO-31 renal it was above 91.9 µM.

Regarding `COc1c(CCC[P+](c2ccccc2)(c2ccccc2)c2ccccc2)cc2c(c1OC)OCO2`, the GI50 in the test with ACHN renal was 5.34 µM; in the test with HL-60(TB) leukemia, 0.339 µM; in the test on NCI-H226 lung, 3.3 µM; in the test with NCI-H23 lung, 2.19 µM; in the test with RXF 393 renal, 2.05 µM; in the test on SK-MEL-28 melanoma, 0.769 µM. Further, the GI50 with SK-OV-3 ovarian was 2.56 µM; in the test on SW-620 colon it was 1.93 µM; in the test with UACC-257 melanoma, 0.312 µM; in the test with UO-31 renal it was 11.9 µM. Also, the TGI in the test with ACHN renal is 29.5 µM; in the test with HL-60(TB) leukemia, 1.48 µM; with NCI-H226 lung, 42.2 µM; in the test on NCI-H23 lung, 10.3 µM; in the test on RXF 393 renal, 11.6 µM; with SK-MEL-28 melanoma, 14.8 µM. For the same compound, the TGI with SK-OV-3 ovarian was 8.45 µM; in the test on SW-620 colon, 11.1 µM; in the test with UACC-257 melanoma, 4.38 µM; in the test with UO-31 renal it was 47.2 µM.
